Reference: US9512172B2, “Ethanol dependence of alpha1 antitrypsin C-terminal Lys truncation by basic carboxypeptidases” (Baxalta Incorporated, priority 2006, dated 2016)

Experiments:
[1] = target: T1, CPN present in the paste (Homo sapiens, UniProt P15169); assay: Effect of CP inhibitors on C-terminal lysine truncation in dissolved, ethanol-treated IV-1 paste (IEF); assay type: biochemical
T1 construct: Cohn IV-1 precipitate is usually derived after ethanol fractionation of plasma; from tissue; host or cells: Cohn IV-1 paste (ethanol precipitate of plasma)
T1 sequence (P15169 21-458): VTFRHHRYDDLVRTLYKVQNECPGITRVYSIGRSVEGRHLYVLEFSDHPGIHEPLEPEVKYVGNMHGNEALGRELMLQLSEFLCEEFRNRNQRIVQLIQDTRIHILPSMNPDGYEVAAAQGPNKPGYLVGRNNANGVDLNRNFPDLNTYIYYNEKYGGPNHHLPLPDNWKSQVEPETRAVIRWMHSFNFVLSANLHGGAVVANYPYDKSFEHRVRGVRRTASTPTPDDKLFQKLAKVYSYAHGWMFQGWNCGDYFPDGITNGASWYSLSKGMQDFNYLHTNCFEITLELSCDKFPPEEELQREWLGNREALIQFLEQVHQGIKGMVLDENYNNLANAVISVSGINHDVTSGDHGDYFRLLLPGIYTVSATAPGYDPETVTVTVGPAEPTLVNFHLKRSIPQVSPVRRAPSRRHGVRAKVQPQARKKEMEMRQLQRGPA
T1 sequence (P22792 22-545 partner): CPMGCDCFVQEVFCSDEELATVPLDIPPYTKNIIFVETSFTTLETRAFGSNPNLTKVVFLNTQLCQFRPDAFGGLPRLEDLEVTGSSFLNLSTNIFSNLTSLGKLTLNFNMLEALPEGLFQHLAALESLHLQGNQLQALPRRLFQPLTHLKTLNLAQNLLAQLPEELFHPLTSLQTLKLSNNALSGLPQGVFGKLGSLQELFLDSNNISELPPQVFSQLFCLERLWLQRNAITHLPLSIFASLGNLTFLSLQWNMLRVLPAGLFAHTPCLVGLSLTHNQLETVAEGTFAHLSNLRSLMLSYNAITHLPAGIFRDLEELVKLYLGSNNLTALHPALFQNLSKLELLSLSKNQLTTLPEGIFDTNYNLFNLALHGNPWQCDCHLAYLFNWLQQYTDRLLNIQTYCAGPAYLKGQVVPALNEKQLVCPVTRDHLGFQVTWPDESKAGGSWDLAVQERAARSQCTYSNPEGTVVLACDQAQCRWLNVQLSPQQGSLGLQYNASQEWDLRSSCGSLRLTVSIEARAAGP
Description: Cohn IV-1 paste was dissolved in 2.6 volumes of 10 mM Tris-buffer at pH 8.8 and incubated for 30 min at 22° C. The suspension was made 40% in ethanol (by addition of 2.4 volumes of ethanol), stirred for a further 60 min, diluted with the same Tris-buffer to 10% ethanol and extracted for a further 6 h.
The following inhibitors were added in parallel during extraction and dilution with Tris-buffer: 100 mM 6-aminocaproic acid, 10 μM or 1 nM 2-mercaptomethyl-3-guanidinoethylthiopropanoic acid (a more specific inhibitor of CPN). The samples were characterized by high resolution isoelectric focusing.
For high resolution isoelectric focusing a new hybrid IEF method using IPG-Immobiline gels (GE Healthcare Bio-Sciences, pI 4.2-4.9, Uppsala, Sweden) was developed which is similar to that described by Weidinger^54. Samples were diluted with water to 0.5 mg A1PI/mL and 5 mM DTE was added. Samples (20 μl) were applied close to the cathode on the pre-focused gel and focused for 150 min (5000 Vh). For paste extracts focusing time was extended to 420 min. Gels were stained with Coomassie Brilliant Blue G-250 (BioRad, Hercules, USA) as described by Neuhoff^55. Blotting and immunostaining were done with a rabbit anti-A1PI antibody (Rabbit Anti-Human Alpha-1-Antitrypsin, #A0012, DakoCytomation, Glostrup, Denmark).

[2] = target: T2, CPU (Homo sapiens, UniProt Q96IY4); settings: cited from earlier work
T2 sequence (Q96IY4 115-423): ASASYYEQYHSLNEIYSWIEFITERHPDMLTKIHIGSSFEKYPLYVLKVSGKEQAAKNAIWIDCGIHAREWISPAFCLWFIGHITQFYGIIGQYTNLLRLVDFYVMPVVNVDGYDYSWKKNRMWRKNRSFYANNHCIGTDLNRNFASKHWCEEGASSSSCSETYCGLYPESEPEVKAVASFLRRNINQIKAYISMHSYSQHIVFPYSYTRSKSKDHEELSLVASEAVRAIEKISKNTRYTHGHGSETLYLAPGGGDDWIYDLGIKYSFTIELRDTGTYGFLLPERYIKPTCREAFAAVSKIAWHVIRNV

[3] = target: T3, CPN (Homo sapiens, UniProt P15169); settings: cited from earlier work
T3 sequence (P15169 21-458): T1 sequence (P15169 21-458)
T3 sequence (P22792 22-545 partner): T1 sequence (P22792 22-545 partner)

[4] = target: T3, CPN; settings: at 10% ethanol
Description: The activity of the basic carboxypeptidases was measured with a HPLC-assisted assay as described^52. This assay is based on the cleavage of the synthetic substrate hippuryl-L-arginine. Released hippuric acid was determined with reverse phase high performance liquid chromatography (RP-HPLC). Briefly, to 10 μl of sample, 40 μl of 30 mM hippuryl-L-arginine (Bachem Feinchemikalien, Buchs, Switzerland) in 50 mM HEPES, pH 8.0, was added and incubated for 30 minutes at 37° C. in a water bath. Hippuryl-L-arginine cleavage was stopped by adding 50 μl of 1 M HCl. 10 μl of o-methyl hippuric acid (synthesized from methylbenzoyl chloride) serving as an internal standard was added afterwards. The hippuric acid (Bz-Gly, Fluka, Buchs, Switzerland) and o-methyl hippuric acid were extracted with ethyl acetate (300 μl). This layer was evaporated to dryness, redissolved in the mobile phase (10 mM KH2PO4, 10% acetonitrile, pH 3.5) and injected unto the column (C-18 Chromolith, performance 100-4.6 mm column (Merck, Darmstadt, Germany). The separation was done in isocratic mode and monitored at 228 nm. One unit of carboxypeptidase activity is defined as the amount of enzyme required to release 1 μmol of hippuric acid per min at 37° C. under the assay conditions described.

In the case of `N=C(N)NCCSCC(CS)C(=O)O` (racemic) [DL-2-mercaptomethyl-3-guanidinoethylthio-propanoic acid], the “Inhibition of Lys truncation induced by the procedure 40=>10% EtOH” value ([1]; dissolved IV-1 paste, pH 8.8, 6 h) is listed as “dose-dependently”, the “Inhibition of lysine removal from A1PI” value ([1]; inhibitor at 10 μmol/l) is listed as “completely inhibited” and the Ki [2] is listed as 200 nM. For the same compound, the Ki [3] was 8.7 nM.
With `CCO` [ethanol] the “Rate of substrate (Bz-Gly-Arg) cleavage by CPN” value [4] was “almost doubled”.
